Results as given in patent publication US4461899A, “Fluorenecarboxylic acid derivatives” (Diamond Shamrock Chemicals Company, priority 1982, dated 1984).
Entries after “also recorded” stand apart in the source; their conditions may differ. Where a name gives a salt, the structure may show the parent alone.

Experiments:
[1] = tested on: Kentucky and Merion turfgrass mixture; experiment: Turfgrass growth retardation (height and fresh weight of clippings) after spraying; assay type: in vivo; settings: for % Reduction in Weight / Reduction in Height: vs control
Protocol: Two known plant growth regulants were similarly tested. Some grass samples were not treated, only fertilized, as controls. Before treatment, the grass was cut and then fertilized with a 20-20-20 water-soluble fertilizer. Three pots were sprayed per treatment. […] The pots were placed in a plant growth room and were watered daily. The grass was cut at 21, 49 and 84 days after being treated; the blade height and total fresh weight of the clippings were measured.

soybean plants = experiment: Soybean yield after foliar spray at early flowering stage; assay type: in vivo; settings: for Yield Improvement %: vs control
From the text: Two 50 cm rows of soybean plants at the early flowering stage were sprayed with 100 ppm or 500 ppm of the cis-2,5-dimethylpyrrolidine salt of 9-fluorenecarboxylic acid, using a spray volume of about 375 liters/hectare (40 gallons/acre). For comparison, other rows were sprayed with like concentrations of two known compounds as designated below. Also 2 untreated rows were maintained to serve as a control: each of the plots was weeded by hand as needed. At maturity, each plot was harvested and the yield was determined.

[2] = tested on: field grown tomato plants; experiment: Fruit set and phytotoxicity in field grown tomato plants; assay type: in vivo; settings: for Increase Over Control (%) of fruit set: 24 days; for Fruit Set Per Plant (After 24 days) / Phytotoxicity: 24 days after treatment; for Increase (%) of fruit set: initial to 24 days
From the text: To determine fruit set effects by compounds of this invention, field grown tomato plants were foliage sprayed with the cis-2,5-dimethylpyrrolidine salt of […], 9-cis-2,5-dimethyl-1-pyrrolidinyl-2-chlorofluorene-9-carboxylic acid, methyl ester, and the commercial plant growth regulant, MAINTAIN CF-125 (methyl-2-chloro-9hydroxyfluorene-9-carboxylate, manufactured by U.S. Borax and Chemical Corp.). Rates of application employed were 5, 25, and 100 ppm when the tomato plants were in the late blooming to early fruit setting stage. Untreated plants were included in the test as controls. Five plants were sprayed for each chemical treatment. The number of fruit set and the degree of phytotoxicity to the plants were determined 24 days after treatment.

[3] = tested on: field grown tomato plants; experiment: Overall yield and fruit size of field grown tomatoes; assay type: in vivo; settings: for Fruit Size, Green (% of Control): control 104.0 g; for Fruit Size, Red (% of Control): control 105.5 g
From the text: This example illustrates the effects of compounds of this invention on overall yield of tomatoes. For the test, field grown tomato plants, when in the early flowering stage, were foliage sprayed with the particular compounds of the invention designated below, and with the commercial product CF-125 (Maintain), at rates of 10, 50 and 500 ppm. These rates correspond to applications of 3.69 g, 18.54 g and 185.4 g/hectare, respectively. Each treatment consisted of five plants; the experimental design was a complete randomized block with three replications. A block of untreated plants was included as the control. The fruit was harvested by hand and separated into […] ripe fruit and marketable green fruit.

[4] = tested on: "Walter" variety tomato plants; experiment: Yield of "Walter" variety tomatoes, weekly harvest of mature red fruit; assay type: in vivo; settings: for Total Fruit / Total Fruit, % of Control: weeks 1-6
From the text: Compounds of this invention were further tested as tomato yield enhancers as follows:
"Walter" variety tomato plants, in the early flowering stage, were foliage sprayed at a rate of 68.8 liters/hectare with compounds of this invention, and with the commercial product, CF-125. Each plot consisted of 20 plants; the experimental design was a completed randomized block with three replications. A plot of untreated plants was included as a control. Marketable, mature red tomatoes were harvested weekly, beginning 5 weeks after treatment.

plants being treated = settings: background; in many instances; cited from earlier work
[5] = 1.12 kilogram/hectare, after 21 days
[6] = 1.12 kilogram/hectare, after 49 days
[7] = 1.12 kilogram/hectare, after 84 days
[8] = 2.24 kilogram/hectare, after 21 days
[9] = 2.24 kilogram/hectare, after 49 days
[10] = 2.24 kilogram/hectare, after 84 days
[11] = 4.48 kilogram/hectare, after 21 days
[12] = 4.48 kilogram/hectare, after 49 days
[13] = 4.48 kilogram/hectare, after 84 days
[14] = third dosage column, printed 1.12 kilogram/hectare, after 21 days

SMILES: O=C(O)c1cccc2c1Cc1ccccc1-2 [Example 1, cis-2,5-dimethyl-1-pyrrolidine salt of 1-fluorenecarboxylic acid]
- % Reduction in Weight [1, 5]: 76%
- Reduction in Height [1, 5]: 50%
- % Reduction in Weight [1, 6]: 45%
- Reduction in Height [1, 6]: 45%
- % Reduction in Weight [1, 7]: 0%
- Reduction in Height [1, 7]: 0%
- % Reduction in Weight [1, 8]: 73%
- Reduction in Height [1, 8]: 48%
- % Reduction in Weight [1, 9]: 64%
- Reduction in Height [1, 9]: 46%
- % Reduction in Weight [1, 10]: 0%
- Reduction in Height [1, 10]: 0%
- Reduction in Height [1, 11]: 56%
- % Reduction in Weight [1, 12]: 63%
- Reduction in Height [1, 12]: 46%
- % Reduction in Weight [1, 13]: 19%
- Reduction in Height [1, 13]: 31%
- appearance of treated turf (leaf, texture) ([1]; in words): fine leaf and smooth texture; it did not have the twisted, yellowish leaves
- activity in controlling grass growth ([1]; in words, compared with MAINTAIN CF-125 and MOW-LESS): more active in controlling grass growth than either MAINTAIN CF-125 or MOW-LESS
- % Reduction in Weight [1, 14]: 75%
- Yield (Kilograms) × 10^2 (soybean plants; 100 ppm): 19.38 Kilograms × 10^2
- Yield Improvement % (soybean plants; 100 ppm): 9.8%
- Yield (Kilograms) × 10^2 (soybean plants; 500 ppm): 21.98 Kilograms × 10^2
- Yield Improvement % (soybean plants; 500 ppm): 24.1%
- Increase Over Control (%) of fruit set ([2]; 5 ppm): 35%
- Fruit Set Per Plant (After 24 days) ([2]; 5 ppm): 16.2
- Phytotoxicity ([2]; 5 ppm): 0
- Fruit Set Per Plant (Initial) ([2]; 5 ppm): 7.6
- Increase (%) of fruit set ([2]; 5 ppm): 108%
- Increase Over Control (%) of fruit set ([2]; 25 ppm): 18%
- Fruit Set Per Plant (After 24 days) ([2]; 25 ppm): 21.0
- Phytotoxicity ([2]; 25 ppm): 0
- Fruit Set Per Plant (Initial) ([2]; 25 ppm): 11.0
- Increase (%) of fruit set ([2]; 25 ppm): 91%
- Increase Over Control (%) of fruit set ([2]; 100 ppm): 47%
- Fruit Set Per Plant (After 24 days) ([2]; 100 ppm): 23.8
- Phytotoxicity ([2]; 100 ppm): light
- Fruit Set Per Plant (Initial) ([2]; 100 ppm): 10.8
- Increase (%) of fruit set ([2]; 100 ppm): 120%
- tomato yield / fruit size, in words ([3]; 10, 50 and 500 ppm, Example 1 decrease at 500 ppm): enhanced, at the rates applied, either the total yield of tomatoes and/or the percentage of red fruit vs. green fruit; also recorded: caused a decrease in all yields when applied at a rate of 500 ppm
- Fruit Yield, Green (% of Control) ([3]; 10 ppm): 92 % of Control
- Fruit Yield, Red (% of Control) ([3]; 10 ppm): 152 % of Control
- Total Yield (% of Control) ([3]; 10 ppm): 113 % of Control
- Fruit Size, Green (% of Control) ([3]; 10 ppm): 76 % of Control
- Fruit Size, Red (% of Control) ([3]; 10 ppm): 87 % of Control
- Fruit Yield, Green (% of Control) ([3]; 50 ppm): 45 % of Control
- Fruit Yield, Red (% of Control) ([3]; 50 ppm): 149 % of Control
- Total Yield (% of Control) ([3]; 50 ppm): 80 % of Control
- Fruit Size, Green (% of Control) ([3]; 50 ppm): 93 % of Control
- Fruit Size, Red (% of Control) ([3]; 50 ppm): 73 % of Control
- Fruit Yield, Green (% of Control) ([3]; 500 ppm): 54 % of Control
- Fruit Yield, Red (% of Control) ([3]; 500 ppm): 68 % of Control
- Total Yield (% of Control) ([3]; 500 ppm): 59 % of Control
- Fruit Size, Green (% of Control) ([3]; 500 ppm): 87 % of Control
- Fruit Size, Red (% of Control) ([3]; 500 ppm): 79 % of Control

SMILES: COC(=O)C1(O)c2ccccc2-c2ccc(Cl)cc21 (centres unmarked) [MAINTAIN CF-125, methyl-2-chloro-9-hydroxyfluorene-9-carboxylate]
- % Reduction in Weight [1, 5]: 31%
- Reduction in Height [1, 5]: 36%
- % Reduction in Weight [1, 6]: 0%
- Reduction in Height [1, 6]: 3%
- % Reduction in Weight [1, 7]: 0%
- Reduction in Height [1, 7]: 0%
- % Reduction in Weight [1, 8]: 38%
- Reduction in Height [1, 8]: 42%
- % Reduction in Weight [1, 9]: 0%
- Reduction in Height [1, 9]: 0%
- % Reduction in Weight [1, 10]: 0%
- Reduction in Height [1, 10]: 0%
- Reduction in Height [1, 11]: 50%
- % Reduction in Weight [1, 12]: 4%
- Reduction in Height [1, 12]: 14%
- % Reduction in Weight [1, 13]: 0%
- Reduction in Height [1, 13]: 0%
- % Reduction in Weight [1, 14]: 52%
- Increase Over Control (%) of fruit set ([2]; 5 ppm): -35%
- Fruit Set Per Plant (After 24 days) ([2]; 5 ppm): 11.8
- Fruit Set Per Plant (Initial) ([2]; 5 ppm): 7.8
- Increase (%) of fruit set ([2]; 5 ppm): 38%
- Increase Over Control (%) of fruit set ([2]; 25 ppm): -23%
- Fruit Set Per Plant (After 24 days) ([2]; 25 ppm): 12.6
- Fruit Set Per Plant (Initial) ([2]; 25 ppm): 8.4
- Increase (%) of fruit set ([2]; 25 ppm): 50%
- Increase Over Control (%) of fruit set ([2]; 100 ppm): -55%
- Fruit Set Per Plant (After 24 days) ([2]; 100 ppm): 8.0
- Fruit Set Per Plant (Initial) ([2]; 100 ppm): 6.8
- Increase (%) of fruit set ([2]; 100 ppm): 18%
- Fruit Yield, Green (% of Control) ([3]; 10 ppm): 25 % of Control
- Fruit Yield, Red (% of Control) ([3]; 10 ppm): 24 % of Control
- Total Yield (% of Control) ([3]; 10 ppm): 25 % of Control
- Fruit Size, Green (% of Control) ([3]; 10 ppm): 104 % of Control
- Fruit Size, Red (% of Control) ([3]; 10 ppm): 97 % of Control
- Fruit Yield, Green (% of Control) ([3]; 50 ppm): 12 % of Control
- Fruit Yield, Red (% of Control) ([3]; 50 ppm): 122 % of Control
- Total Yield (% of Control) ([3]; 50 ppm): 44 % of Control
- Fruit Size, Green (% of Control) ([3]; 50 ppm): 62 % of Control
- Fruit Size, Red (% of Control) ([3]; 50 ppm): 88 % of Control
- Fruit Yield, Green (% of Control) ([3]; 500 ppm): 3 % of Control
- Fruit Yield, Red (% of Control) ([3]; 500 ppm): 79 % of Control
- Total Yield (% of Control) ([3]; 500 ppm): 29 % of Control
- Fruit Size, Green (% of Control) ([3]; 500 ppm): 54 % of Control
- Fruit Size, Red (% of Control) ([3]; 500 ppm): 108 % of Control
- Fruit Yield (kg/plot) ([4]; 5 ppm): 25.6 kg/plot
- Total Yield Wt. % of Control ([4]; 5 ppm): 108.0 % of Control
- Fruit harvested, Harvest Time (Week) 1 ([4]; 5 ppm): 34
- Fruit harvested, Harvest Time (Week) 2 ([4]; 5 ppm): 206
- Fruit harvested, Harvest Time (Week) 3 ([4]; 5 ppm): 139
- Fruit harvested, Harvest Time (Week) 4 ([4]; 5 ppm): 40
- Fruit harvested, Harvest Time (Week) 5 ([4]; 5 ppm): 29
- Fruit harvested, Harvest Time (Week) 6 ([4]; 5 ppm): 178
- Total Fruit ([4]; 5 ppm): 626
- Total Fruit, % of Control ([4]; 5 ppm): 109 % of Control
- Fruit Yield (kg/plot) ([4]; 10 ppm): 15.3 kg/plot
- Total Yield Wt. % of Control ([4]; 10 ppm): 64.8 % of Control
- Fruit harvested, Harvest Time (Week) 1 ([4]; 10 ppm): 6
- Fruit harvested, Harvest Time (Week) 2 ([4]; 10 ppm): 192
- Fruit harvested, Harvest Time (Week) 3 ([4]; 10 ppm): 92
- Fruit harvested, Harvest Time (Week) 4 ([4]; 10 ppm): 16
- Fruit harvested, Harvest Time (Week) 5 ([4]; 10 ppm): 4
- Fruit harvested, Harvest Time (Week) 6 ([4]; 10 ppm): 69
- Total Fruit ([4]; 10 ppm): 379
- Total Fruit, % of Control ([4]; 10 ppm): 66 % of Control
- Fruit Yield (kg/plot) ([4]; 50 ppm): 2.6 kg/plot
- Total Yield Wt. % of Control ([4]; 50 ppm): 11.0 % of Control
- Fruit harvested, Harvest Time (Week) 1 ([4]; 50 ppm): 15
- Fruit harvested, Harvest Time (Week) 2 ([4]; 50 ppm): 18
- Fruit harvested, Harvest Time (Week) 3 ([4]; 50 ppm): 8
- Fruit harvested, Harvest Time (Week) 4 ([4]; 50 ppm): 0
- Fruit harvested, Harvest Time (Week) 5 ([4]; 50 ppm): 0
- Fruit harvested, Harvest Time (Week) 6 ([4]; 50 ppm): 2
- Total Fruit ([4]; 50 ppm): 43
- Total Fruit, % of Control ([4]; 50 ppm): 7 % of Control
- phytotoxicity, in words (plants being treated): phytotoxic to the plants being treated
